Tests used:
Format in all cases: cell-based, mouse
[1] = system: α7 integrin (LacZ reporter in α7+/LacZ myotubes); experiment: Myotube α7 integrin FDG assay (Burkin assay in myotubes, 96-well); details: for Burkin Assay in Myotubes, value relative to DMSO: SU9516 analogs, 96-well, N=3-6
[2] = system: β-galactosidase in CMV-LacZ C2C12 myotubes; experiment: CMV-LacZ secondary screen in C2C12 myotubes (β-Gal stabilizing assay); details: for CMV-LACZ in Myotubes, signal relative to DMSO: C2C12 CMV-LacZ myotubes, fold relative to DMSO; for CMV-LACZ in Myotubes, value relative to DMSO: SU9516 analogs, C2C12 CMV-LacZ, N=2
Summary of the method: (§1)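 β-Gal level was the read-out, measured in a clonal C2C12 line expressing LacZ from a CMV promoter. Dose-response curves used six concentrations, 0.5 μM up to 40 μM, with duplicate points.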

[3] = system: α7 integrin (LacZ reporter in α7βgal+/− myoblasts); experiment: Myoblast α7+/LacZ integrin FDG assay (Burkin assay in myoblasts, 96-well); details: 96-well; for Burkin Assay in Myoblasts, signal relative to DMSO: α7+/LacZ myoblasts; for Burkin Assay in Myoblasts, value relative to DMSO: SU9516 analogs, N=3-6
[4] = system: β-galactosidase in CMV-LacZ C2C12 myoblasts; experiment: CMV-LacZ secondary screen in C2C12 myoblasts (β-Gal stabilizing assay); details: for CMV-LACZ in Myoblasts (β-galactosidase activity relative to DMSO): CMV-LacZ C2C12 myoblasts; for CMV-LACZ in Myoblasts, value relative to DMSO: SU9516 analogs, C2C12 CMV-LacZ, N=2
Summary of the method: as §1

Cn1c(O)c(C(C#N)=C2N=c3ccccc3=N2)c2ccccc21 [MLS000536064-01]
Burkin Assay in Myotubes, α7 integrin LacZ reporter signal relative to DMSO ([1]; 0.5 uM): 0.9046 | Burkin Assay in Myotubes, α7 integrin LacZ reporter signal relative to DMSO ([1]; 1 uM): 0.9555 | Burkin Assay in Myotubes, α7 integrin LacZ reporter signal relative to DMSO ([1]; 5 uM): 0.9539 | Burkin Assay in Myotubes, α7 integrin LacZ reporter signal relative to DMSO ([1]; 10 uM): 1.131 | Burkin Assay in Myotubes, α7 integrin LacZ reporter signal relative to DMSO ([1]; 20 uM): 0.7642 | Burkin Assay in Myotubes, α7 integrin LacZ reporter signal relative to DMSO ([1]; 40 uM): 0.7073 | CMV-LACZ in Myotubes, signal relative to DMSO ([2]; 0.5 uM): 0.9705 | CMV-LACZ in Myotubes, signal relative to DMSO ([2]; 1 uM): 1.0389 | CMV-LACZ in Myotubes, signal relative to DMSO ([2]; 5 uM): 0.8894 | CMV-LACZ in Myotubes, signal relative to DMSO ([2]; 10 uM): 1.1027 | CMV-LACZ in Myotubes, signal relative to DMSO ([2]; 20 uM): 1.2344 | CMV-LACZ in Myotubes, signal relative to DMSO ([2]; 40 uM): 1.0233 | Burkin Assay in Myoblasts, signal relative to DMSO ([3]; 0.5 uM): 0.8028 | Burkin Assay in Myoblasts, signal relative to DMSO ([3]; 1 uM): 0.804 | Burkin Assay in Myoblasts, signal relative to DMSO ([3]; 5 uM): 0.7333 | Burkin Assay in Myoblasts, signal relative to DMSO ([3]; 10 uM): 1.047 | Burkin Assay in Myoblasts, signal relative to DMSO ([3]; 20 uM): 0.544 | Burkin Assay in Myoblasts, signal relative to DMSO ([3]; 40 uM): 0.4501 | CMV-LACZ in Myoblasts (β-galactosidase activity relative to DMSO) ([4]; 0.5 uM): 0.9105 | CMV-LACZ in Myoblasts (β-galactosidase activity relative to DMSO) ([4]; 1 uM): 0.7412 | CMV-LACZ in Myoblasts (β-galactosidase activity relative to DMSO) ([4]; 5 uM): 2.0402 | CMV-LACZ in Myoblasts (β-galactosidase activity relative to DMSO) ([4]; 10 uM): 1.3388 | CMV-LACZ in Myoblasts (β-galactosidase activity relative to DMSO) ([4]; 20 uM): 2.5396 | CMV-LACZ in Myoblasts (β-galactosidase activity relative to DMSO) ([4]; 40 uM): 2.4896

Fc1ccc(-c2ccnc3nc(N4CCN(c5ccccc5)CC4)nn23)cc1 [MLS000546316-01]
Burkin Assay in Myotubes, α7 integrin LacZ reporter signal relative to DMSO ([1]; 0.5 uM): 1.137 | Burkin Assay in Myotubes, α7 integrin LacZ reporter signal relative to DMSO ([1]; 1 uM): 1.174 | Burkin Assay in Myotubes, α7 integrin LacZ reporter signal relative to DMSO ([1]; 5 uM): 1.066 | Burkin Assay in Myotubes, α7 integrin LacZ reporter signal relative to DMSO ([1]; 10 uM): 1.099 | Burkin Assay in Myotubes, α7 integrin LacZ reporter signal relative to DMSO ([1]; 20 uM): 0.8571 | Burkin Assay in Myotubes, α7 integrin LacZ reporter signal relative to DMSO ([1]; 40 uM): 1.176 | CMV-LACZ in Myotubes, signal relative to DMSO ([2]; 0.5 uM): 1.2590 | CMV-LACZ in Myotubes, signal relative to DMSO ([2]; 1 uM): 1.0019 | CMV-LACZ in Myotubes, signal relative to DMSO ([2]; 5 uM): 1.0040 | CMV-LACZ in Myotubes, signal relative to DMSO ([2]; 10 uM): 1.0825 | CMV-LACZ in Myotubes, signal relative to DMSO ([2]; 20 uM): 1.0190 | CMV-LACZ in Myotubes, signal relative to DMSO ([2]; 40 uM): 1.2640 | Burkin Assay in Myoblasts, signal relative to DMSO ([3]; 0.5 uM): 1.159 | Burkin Assay in Myoblasts, signal relative to DMSO ([3]; 1 uM): 1.223 | Burkin Assay in Myoblasts, signal relative to DMSO ([3]; 5 uM): 1.164 | Burkin Assay in Myoblasts, signal relative to DMSO ([3]; 10 uM): 1.123 | Burkin Assay in Myoblasts, signal relative to DMSO ([3]; 20 uM): 1.026 | Burkin Assay in Myoblasts, signal relative to DMSO ([3]; 40 uM): 1.027 | CMV-LACZ in Myoblasts (β-galactosidase activity relative to DMSO) ([4]; 0.5 uM): 1.0623 | CMV-LACZ in Myoblasts (β-galactosidase activity relative to DMSO) ([4]; 1 uM): 1.1373 | CMV-LACZ in Myoblasts (β-galactosidase activity relative to DMSO) ([4]; 5 uM): 0.8090 | CMV-LACZ in Myoblasts (β-galactosidase activity relative to DMSO) ([4]; 10 uM): 1.2440 | CMV-LACZ in Myoblasts (β-galactosidase activity relative to DMSO) ([4]; 20 uM): 1.3463 | CMV-LACZ in Myoblasts (β-galactosidase activity relative to DMSO) ([4]; 40 uM): 1.5049

O=C1Nc2ccccc2/C1=C\c1cccn1-c1ccc(OC(F)(F)F)cc1 [MLS000546982-01]
Burkin Assay in Myotubes, value relative to DMSO ([1]; 0.5 uM): 1.048 | Burkin Assay in Myotubes, value relative to DMSO ([1]; 1 uM): 1.038 | Burkin Assay in Myotubes, value relative to DMSO ([1]; 5 uM): 1.145 | Burkin Assay in Myotubes, value relative to DMSO ([1]; 10 uM): 0.9962 | Burkin Assay in Myotubes, value relative to DMSO ([1]; 20 uM): 0.8556 | Burkin Assay in Myotubes, value relative to DMSO ([1]; 40 uM): 0.7111 | CMV-LACZ in Myotubes, value relative to DMSO ([2]; 0.5 uM): 1.0438 | CMV-LACZ in Myotubes, value relative to DMSO ([2]; 1 uM): 0.8467 | CMV-LACZ in Myotubes, value relative to DMSO ([2]; 5 uM): 1.0159 | CMV-LACZ in Myotubes, value relative to DMSO ([2]; 10 uM): 1.1265 | CMV-LACZ in Myotubes, value relative to DMSO ([2]; 20 uM): 1.0160 | CMV-LACZ in Myotubes, value relative to DMSO ([2]; 40 uM): 1.3290 | Burkin Assay in Myoblasts, value relative to DMSO ([3]; 0.5 uM): 0.8799 | Burkin Assay in Myoblasts, value relative to DMSO ([3]; 1 uM): 1.155 | Burkin Assay in Myoblasts, value relative to DMSO ([3]; 5 uM): 1.272 | Burkin Assay in Myoblasts, value relative to DMSO ([3]; 10 uM): 1.078 | Burkin Assay in Myoblasts, value relative to DMSO ([3]; 20 uM): 1.053 | Burkin Assay in Myoblasts, value relative to DMSO ([3]; 40 uM): 0.8883 | CMV-LACZ in Myoblasts, value relative to DMSO ([4]; 0.5 uM): 1.0877 | CMV-LACZ in Myoblasts, value relative to DMSO ([4]; 1 uM): 1.2640 | CMV-LACZ in Myoblasts, value relative to DMSO ([4]; 5 uM): 0.9273 | CMV-LACZ in Myoblasts, value relative to DMSO ([4]; 10 uM): 1.0785 | CMV-LACZ in Myoblasts, value relative to DMSO ([4]; 20 uM): 0.9512 | CMV-LACZ in Myoblasts, value relative to DMSO ([4]; 40 uM): 1.3937
